{"source": "BindingDB's records for patent US20230286970", "about": "(Italfarmaco, 2023)", "key": {"Histone deacetylase 1": {"target": "Histone deacetylase 1 (Homo sapiens, UniProt Q13547)", "sequence (Q13547 whole entry, canonical isoform)": "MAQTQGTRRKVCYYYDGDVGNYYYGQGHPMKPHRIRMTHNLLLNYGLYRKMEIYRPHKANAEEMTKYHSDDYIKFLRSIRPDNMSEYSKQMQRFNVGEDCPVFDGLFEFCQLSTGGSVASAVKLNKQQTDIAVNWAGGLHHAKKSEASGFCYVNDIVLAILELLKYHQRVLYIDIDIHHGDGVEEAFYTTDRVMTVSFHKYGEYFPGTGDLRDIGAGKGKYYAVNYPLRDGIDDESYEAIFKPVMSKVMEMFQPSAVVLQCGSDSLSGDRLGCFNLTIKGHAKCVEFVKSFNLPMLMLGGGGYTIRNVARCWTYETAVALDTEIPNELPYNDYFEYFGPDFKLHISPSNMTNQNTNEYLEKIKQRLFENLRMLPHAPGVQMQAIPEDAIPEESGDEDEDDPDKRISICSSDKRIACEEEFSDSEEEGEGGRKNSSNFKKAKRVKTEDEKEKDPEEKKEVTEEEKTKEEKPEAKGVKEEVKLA", "assay": "Enzymatic Activity Assay", "protocol": "(§1) After a period of preincubation (incubation times and temperatures vary for different isoforms and are shown in table 1) 25 μL of solution containing the substrate were added. […] Enzymatic activity on recombinant human HDAC6 and HDAC1 was evaluated (Table 2) for each synthesized compound."}, "Histone deacetylase 6": {"target": "T1, Histone deacetylase 6 (Homo sapiens, UniProt Q9UBN7)", "T1 sequence (Q9UBN7 whole entry)": "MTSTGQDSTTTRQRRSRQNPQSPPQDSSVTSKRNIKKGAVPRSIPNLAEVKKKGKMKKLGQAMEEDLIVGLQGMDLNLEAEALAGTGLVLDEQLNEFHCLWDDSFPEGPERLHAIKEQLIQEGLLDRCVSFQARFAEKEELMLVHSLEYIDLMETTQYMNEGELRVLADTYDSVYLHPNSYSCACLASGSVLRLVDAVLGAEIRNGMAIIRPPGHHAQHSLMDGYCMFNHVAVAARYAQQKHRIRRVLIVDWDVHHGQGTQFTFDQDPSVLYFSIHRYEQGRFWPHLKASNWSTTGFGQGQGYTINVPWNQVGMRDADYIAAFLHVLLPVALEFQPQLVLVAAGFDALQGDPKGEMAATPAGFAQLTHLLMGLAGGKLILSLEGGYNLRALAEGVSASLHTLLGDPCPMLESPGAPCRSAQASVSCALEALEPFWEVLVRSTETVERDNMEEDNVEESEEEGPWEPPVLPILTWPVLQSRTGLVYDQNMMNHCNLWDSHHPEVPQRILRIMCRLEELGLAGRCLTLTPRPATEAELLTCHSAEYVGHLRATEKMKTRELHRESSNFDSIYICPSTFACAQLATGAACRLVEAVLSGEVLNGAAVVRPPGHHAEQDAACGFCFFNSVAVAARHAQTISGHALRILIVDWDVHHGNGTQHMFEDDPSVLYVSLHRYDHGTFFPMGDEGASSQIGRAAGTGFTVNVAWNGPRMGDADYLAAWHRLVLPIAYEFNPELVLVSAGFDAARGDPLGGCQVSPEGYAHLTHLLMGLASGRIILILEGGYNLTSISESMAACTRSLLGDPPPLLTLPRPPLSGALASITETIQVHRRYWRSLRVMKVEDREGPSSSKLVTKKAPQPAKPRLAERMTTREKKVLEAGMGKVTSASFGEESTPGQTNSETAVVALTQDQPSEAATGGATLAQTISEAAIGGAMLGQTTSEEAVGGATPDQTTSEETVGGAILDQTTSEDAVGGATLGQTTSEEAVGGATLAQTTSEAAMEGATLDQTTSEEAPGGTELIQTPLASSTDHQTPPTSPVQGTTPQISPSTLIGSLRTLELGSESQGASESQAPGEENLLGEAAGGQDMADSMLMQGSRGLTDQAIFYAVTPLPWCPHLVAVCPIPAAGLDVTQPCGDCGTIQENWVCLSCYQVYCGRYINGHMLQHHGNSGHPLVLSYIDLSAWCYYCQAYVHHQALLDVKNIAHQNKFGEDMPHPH", "assay": "Enzymatic Activity Assay", "protocol": "as §1"}}}
{"smiles": "NC(=O)c1cccc(-c2nnn(Cc3ccc(-c4nnc(C(F)F)o4)cn3)n2)c1", "note": "[US20230286970, Compound 29]", "values": [{"measurement": "IC50", "setting": "Histone deacetylase 1", "result": "> 200000", "unit": "nM"}, {"measurement": "IC50", "setting": "Histone deacetylase 6", "result": 10, "unit": "nM"}]}
{"smiles": "NCc1ccc(-c2nnn(Cc3c(F)cc(-c4nnc(C(F)F)o4)cc3F)n2)cc1", "note": "[US20230286970, Compound 33]", "values": [{"measurement": "IC50", "setting": "Histone deacetylase 1", "result": "> 200000", "unit": "nM"}, {"measurement": "IC50", "setting": "Histone deacetylase 6", "result": 14, "unit": "nM"}]}
{"smiles": "Nc1ncc(-c2cccc(-c3nnn(Cc4ccc(-c5nnc(C(F)F)o5)cn4)n3)c2)s1", "note": "[US20230286970, Compound 38]", "values": [{"measurement": "IC50", "setting": "Histone deacetylase 1", "result": "> 200000", "unit": "nM"}, {"measurement": "IC50", "setting": "Histone deacetylase 6", "result": 18, "unit": "nM"}]}
{"smiles": "NCc1ccc(-c2cn(Cc3c(F)cc(-c4nnc(C(F)F)o4)cc3F)nn2)cc1", "note": "[US20230286970, Compound 44]", "values": [{"measurement": "IC50", "setting": "Histone deacetylase 1", "result": 163000, "unit": "nM"}, {"measurement": "IC50", "setting": "Histone deacetylase 6", "result": 20, "unit": "nM"}]}
{"smiles": "Nc1ccc(-c2cn(Cc3ccc(-c4nnc(C(F)F)o4)cc3)nn2)cn1", "note": "[US20230286970, Compound 52]", "values": [{"measurement": "IC50", "setting": "Histone deacetylase 6", "result": 23, "unit": "nM"}]}
{"smiles": "O=C1NCc2ccc(-c3nnn(Cc4ccc(-c5nnc(C(F)F)o5)cc4)n3)cc21", "note": "[US20230286970, Compound 55]", "values": [{"measurement": "IC50", "setting": "Histone deacetylase 1", "result": "> 200000", "unit": "nM"}, {"measurement": "IC50", "setting": "Histone deacetylase 6", "result": 24, "unit": "nM"}]}
{"smiles": "Oc1ccc(-c2nnn(Cc3ccc(-c4nnc(C(F)F)o4)cc3)n2)cc1", "note": "[US20230286970, Compound 56]", "values": [{"measurement": "IC50", "setting": "Histone deacetylase 1", "result": "> 200000", "unit": "nM"}, {"measurement": "IC50", "setting": "Histone deacetylase 6", "result": 25, "unit": "nM"}]}
{"smiles": "O=C1NCc2ccc(-c3nnn(Cc4c(F)cc(-c5nnc(C(F)F)o5)cc4F)n3)cc21", "note": "[US20230286970, Compound 57]", "values": [{"measurement": "IC50", "setting": "Histone deacetylase 1", "result": "> 200000", "unit": "nM"}, {"measurement": "IC50", "setting": "Histone deacetylase 6", "result": 25, "unit": "nM"}]}
{"smiles": "C[C@H](c1ccc(-c2nnc(C(F)F)o2)cc1)n1cc(-c2ccc(N)nc2)nn1", "note": "[US20230286970, Compound 106]", "values": [{"measurement": "IC50", "setting": "Histone deacetylase 6", "result": 41, "unit": "nM"}]}
{"smiles": "O=C1Nc2ccc(-c3nnn(Cc4ccc(-c5nnc(C(F)F)o5)cc4)n3)cc2NC12CCCCC2", "note": "[US20230286970, Compound 157]", "values": [{"measurement": "IC50", "setting": "Histone deacetylase 1", "result": "> 200000", "unit": "nM"}, {"measurement": "IC50", "setting": "Histone deacetylase 6", "result": 70, "unit": "nM"}]}
{"smiles": "FC(F)c1nnc(-c2cnc(Cn3nnc(-c4cccs4)n3)nc2)o1", "note": "[US20230286970, Compound 187]", "values": [{"measurement": "IC50", "setting": "Histone deacetylase 1", "result": "> 200000", "unit": "nM"}, {"measurement": "IC50", "setting": "Histone deacetylase 6", "result": 41, "unit": "nM"}]}
{"smiles": "CN(C)C(=Nc1ccc(-c2cn(Cc3ccc(-c4nnc(C(F)F)o4)cc3)nn2)cc1)N(C)C", "note": "[US20230286970, Compound 217]", "values": [{"measurement": "IC50", "setting": "Histone deacetylase 1", "result": "> 200000", "unit": "nM"}, {"measurement": "IC50", "setting": "Histone deacetylase 6", "result": 154, "unit": "nM"}]}
{"smiles": "C[C@@H](c1ccc(-c2nnc(C(F)F)o2)cc1)n1cc(-c2ccc(N)nc2)nn1", "note": "[US20230286970, Compound 255]", "values": [{"measurement": "IC50", "setting": "Histone deacetylase 6", "result": 377, "unit": "nM"}]}
{"smiles": "O=C(O)c1cccc(-c2nnn(Cc3ccc(-c4nnc(C(F)F)o4)cc3)n2)c1", "note": "[US20230286970, Compound 260]", "values": [{"measurement": "IC50", "setting": "Histone deacetylase 1", "result": "> 200000", "unit": "nM"}, {"measurement": "IC50", "setting": "Histone deacetylase 6", "result": 480, "unit": "nM"}]}
{"smiles": "O=C(O)c1cccc(-c2cn(Cc3ccc(-c4nnc(C(F)F)o4)cc3)nn2)c1", "note": "[US20230286970, Compound 275]", "values": [{"measurement": "IC50", "setting": "Histone deacetylase 1", "result": "> 200000", "unit": "nM"}, {"measurement": "IC50", "setting": "Histone deacetylase 6", "result": 373, "unit": "nM"}]}
{"smiles": "CCN(Cc1cn(Cc2c(F)cc(-c3nnc(C(F)F)o3)cc2F)nn1)C(=O)Nc1cccnc1OC", "note": "[US20230286970, Compound 283]", "values": [{"measurement": "IC50", "setting": "Histone deacetylase 1", "result": "> 200000", "unit": "nM"}, {"measurement": "IC50", "setting": "Histone deacetylase 6", "result": 225, "unit": "nM"}]}
{"smiles": "COc1ncc(NCc2ccc(-n3cc(Cc4ccc(-c5nnc(C(F)F)o5)cc4)nn3)cc2)cc1C(N)=O", "note": "[US20230286970, Compound 286]", "values": [{"measurement": "IC50", "setting": "Histone deacetylase 1", "result": "> 200000", "unit": "nM"}, {"measurement": "IC50", "setting": "Histone deacetylase 6", "result": 99, "unit": "nM"}]}
{"smiles": "Nc1ncnc2sc(-c3cn(Cc4ccc(-c5nnc(C(F)F)o5)c(F)c4F)nn3)cc12", "note": "[US20230286970, Compound 384]", "values": [{"measurement": "IC50", "setting": "Histone deacetylase 6", "result": 63, "unit": "nM"}]}
{"smiles": "CN(C)c1ccc2cc(-c3cn(Cc4c(F)cc(-c5nnc(C(F)F)o5)cc4F)nn3)ccc2n1", "note": "[US20230286970, Compound 399]", "values": [{"measurement": "IC50", "setting": "Histone deacetylase 6", "result": 247, "unit": "nM"}]}
{"smiles": "Nc1ccc(-n2cc(Cc3ccc(-c4nnc(C(F)F)o4)cc3)nn2)cn1", "note": "[US20230286970, Compound 413]", "values": [{"measurement": "IC50", "setting": "Histone deacetylase 6", "result": 515, "unit": "nM"}]}
{"smiles": "Nc1ncnc2sc(-c3cn(Cc4cc(F)c(-c5nnc(C(F)F)o5)cc4F)nn3)cc12", "note": "[US20230286970, Compound 415]", "values": [{"measurement": "IC50", "setting": "Histone deacetylase 6", "result": 49, "unit": "nM"}]}
